According to patent US9314530B2, “Composition, in aqueous medium, that comprises at least a hyaluronic acid and at least an hydrosoluble salt of sucrose octasulfate” (LABORATOIRES VIVACY, priority 2012, dated 2016):

Key:
Assay type in all cases: physicochemical
[1] = Stability with regard to steam autoclaving: viscosity of non-crosslinked hyaluronic acid compositions (rheometer)
Procedure: For the compositions according to the invention comprising non-crosslinked hyaluronic acid, the viscosity η of the sterilized compositions after the steam autoclaving step is characterized on a TA Instruments AR 2000 Ex rheometer, under controlled constraint conditions, at 25° C. The viscosity value is recorded at a constraint of 0.02 s^−1.
(§1) For the compositions comprising non-crosslinked hyaluronic acid, the percentage of loss in the viscosity is the value of the difference in the viscosity of the reference composition after steam autoclaving and the viscosity of the composition comprising non-crosslinked hyaluronic acid and a sulphated oligo-polysaccharide or a sulphated monosaccharide after steam autoclaving over the value of the viscosity of the reference composition after steam autoclaving.
(§2) For these all measurements, a reference composition is formulated, the aqueous solution of sulphated oligo-polysaccharide or of sulphated monosaccharide being replaced by the same amount of aqueous solution of phosphate buffer.
Nine compositions comprising non-crosslinked hyaluronic acid and a sulphated oligo-polysaccharide or a sulphated monosaccharide at a concentration of 1 mg/g in the composition are prepared according to the procedure described in Example 1.
A reference composition is also formulated, the aqueous solution of sulphated oligo-polysaccharide or of sulphated monosaccharide being replaced by the same amount of aqueous solution of phosphate buffer.
A series of five compositions comprising non-crosslinked hyaluronic acid, mannitol and a sulphated oligo-polysaccharide or a sulphated monosaccharide at a concentration of 1 mg/g in the composition is prepared according to the procedure described in Example 3.
Examples of tests on formulations of KSOS (at different concentrations) with a non-crosslinked gel of Example 1 at the concentrations and ratios described in Table 7 below.
The gels are sterilized and then characterized by rheology according to Example 8.

[2] = Stability with regard to steam autoclaving: elastic component G′ of crosslinked hyaluronic acid compositions (rheometer)
Procedure: For the compositions according to the invention comprising crosslinked hyaluronic acid, the elastic component G′ of the sterilized compositions after the autoclaving step is characterized on a TA Instruments AR 2000 Ex rheometer, under oscillation conditions, at 25° C., the values of the elastic component being recorded at a frequency of 1 Hz.
as §1, with “crosslinked” for “non-crosslinked”, “elastic component G′” for “viscosity”
as §2
A series of four compositions comprising crosslinked hyaluronic acid, mannitol and a sulphated oligo-polysaccharide or a sulphated monosaccharide at a concentration of 1 mg/g in the composition is prepared according to the procedure described in Example 4.
A reference composition is also formulated, the aqueous solution of sulphated oligo-polysaccharide or of sulphated monosaccharide being replaced by an equivalent amount of aqueous solution of phosphate buffer.
Examples of tests on formulations of KSOS (at different concentrations) with a 20 mg/g crosslinked NaHA gel (IPN-like gel, sold under the Stylage® M brand), which is the reference gel.
The gels are sterilized and then characterized.
The percentage of loss in the elastic component G′ with respect to the reference composition is measured according to Example 8 and the difference between the injectability force, through 30-gauge ½ hypodermic needles, of the reference gel and of the gels comprising potassium sucrose octasulphate is measured.
Example of test on formulation of KSOS with a gel comprising crosslinked hyaluronic acid at the concentration and at the ratio described in Table 8 below.
The gels are prepared according to the procedure described in Example 2 and are then characterized by rheology according to Example 8.

[3] = Solubility of salts of sucrose octasulphate
[4] = after steam autoclaving, non-crosslinked hyaluronic acid + mannitol + sulphated saccharide at 1 mg/g (procedure of Example 3)
[5] = after steam autoclaving, non-crosslinked hyaluronic acid + sulphated saccharide at 1 mg/g (procedure of Example 1), viscosity at 25° C., 0.02 s^−1
[6] = after steam autoclaving, crosslinked hyaluronic acid + mannitol + sulphated saccharide at 1 mg/g (procedure of Example 4), 25° C., 1 Hz

O=S(=O)(O)N[C@H]1C(O)O[C@H](CO)[C@@H](O)[C@@H]1O (stereo partly drawn) [D-Glucosamine-2-sulphate, reference compound]
% of loss in the viscosity with respect to the reference composition [1, 4]: 25% | % of loss in the viscosity with respect to the reference composition [1, 5]: 87% | % of loss in the elastic component G′ with respect to the reference composition [2, 6]: 18%

N[C@H]1C(O)O[C@H](COS(=O)(=O)O)[C@@H](O)[C@@H]1O (stereo partly drawn) [D-Glucosamine-6-sulphate, reference compound]
% of loss in the viscosity with respect to the reference composition [1, 4]: 90% | % of loss in the viscosity with respect to the reference composition [1, 5]: 98% | % of loss in the elastic component G′ with respect to the reference composition [2, 6]: 74%

CC(=O)N[C@H]1C(O)O[C@H](COS(=O)(=O)O)[C@@H](O)[C@@H]1O (stereo partly drawn) [N-Acetyl-D-glucosamine-6-sulphate, reference compound]
% of loss in the viscosity with respect to the reference composition [1, 4]: 60% | % of loss in the viscosity with respect to the reference composition [1, 5]: 96% | % of loss in the elastic component G′ with respect to the reference composition [2, 6]: 32%

O=S(=O)([O-])OC[C@H]1O[C@@](COS(=O)(=O)[O-])(O[C@H]2O[C@H](COS(=O)(=O)[O-])[C@@H](OS(=O)(=O)[O-])[C@H](OS(=O)(=O)[O-])[C@H]2OS(=O)(=O)[O-])[C@@H](OS(=O)(=O)[O-])[C@@H]1OS(=O)(=O)[O-].[Na+].[Na+].[Na+].[Na+].[Na+].[Na+].[Na+].[Na+] [Sodium sucrose octasulphate]
solubility compared with the potassium salt [3]: greater than that of the potassium salt | % of loss in the viscosity with respect to the reference composition [1, 4]: 0% | % of loss in the viscosity with respect to the reference composition [1, 5]: 0%

Chondroitin sulphate [reference compound]
% of loss in the viscosity with respect to the reference composition [1, 5]: 62%

Dextran sulphate(40000) [reference compound]
% of loss in the viscosity with respect to the reference composition [1, 5]: 16%

Disulphated carrageenan(disaccharide) [reference compound]
% of loss in the viscosity with respect to the reference composition [1, 5]: 94%

Hexasulphated carrageenan(hexasaccharide) [reference compound]
% of loss in the viscosity with respect to the reference composition [1, 5]: 92%

Potassium sucrose octasulphate
maximum solubility [3]: 40 mg/g | % of loss in the viscosity with respect to the reference composition ([1]; after autoclaving, non-crosslinked NaHA 4 mg/g, KSOS 40 mg/g, [HA]/[SOS] 0.1): 0% | % of loss in the viscosity with respect to the reference composition ([1]; after autoclaving, non-crosslinked NaHA 10 mg/g, KSOS 10 mg/g, [HA]/[SOS] 1): 0% | % of loss in the viscosity with respect to the reference composition ([1]; after autoclaving, non-crosslinked NaHA 10 mg/g, KSOS 20 mg/g, [HA]/[SOS] 0.5): 0% | % of loss in the viscosity with respect to the reference composition ([1]; after autoclaving, non-crosslinked NaHA 20 mg/g, KSOS 10 mg/g, [HA]/[SOS] 2): 0% | % of loss in the viscosity with respect to the reference composition ([1]; after autoclaving, non-crosslinked NaHA 20 mg/g, KSOS 20 mg/g, [HA]/[SOS] 1): 0% | % of loss in the viscosity with respect to the reference composition ([1]; after autoclaving, non-crosslinked NaHA 25 mg/g, KSOS 0.01 mg/g, [HA]/[SOS] 2500): 0% | % of loss in the viscosity with respect to the reference composition ([1]; after autoclaving, non-crosslinked NaHA 25 mg/g, KSOS 0.05 mg/g, [HA]/[SOS] 500): 0% | % of loss in the viscosity with respect to the reference composition [1, 4]: 0% | % of loss in the viscosity with respect to the reference composition [1, 5]: 0% | % of loss in the elastic component G′ with respect to the reference composition ([2]; after autoclaving, crosslinked NaHA 10.3 mg/g, KSOS 25 mg/g, [HA]/[SOS] 0.4 (procedure of Example 2)): 0% | % of loss in the elastic component G′ with respect to the reference composition [2, 6]: 0% | % of loss in the elastic component G′ with respect to the reference composition ([2]; after steam autoclaving, crosslinked hyaluronic acid + mannitol + sulphated saccharide at 1 mg/g (procedure of Example 4), 25° C., 1 Hz, listed as potassium sucrose octasulphate): no loss
